Measured values: US20070202116A1, “Treatment of micro-organism infection” (priority 2001, published 2007)

Legend:
EMRSA strains = assay: MIC of vancomycin or flucloxacillin with and without Aurograb (Table 3a); assay type: cell-based, S. aureus; settings: Staphylococcus aureus; all EMRSA strains; read-out: MIC of flucloxacillin
Experimental: Strains of MRSA were grown overnight in nutrient broth and diluted to give an inoculum of 1×10^3 cells per mL. […] Cultures were incubated for a further 2 days. The minimum growth-inhibitory concentration (MIC) is defined as the […] concentration of antibiotic at which no bacterial growth occurs and is determined by spectrophotometric evaluation of the lack of turbidity (growth) in culture. MICs were determined in the presence of exogenous Aurograb or in the presence of Aurograb formulation buffer (negative control).
The experiments were also performed using flucloxacillin instead of vancomycin to investigate how the efficacy of penicillin-type […] was affected by Aurograb.

human blood = assay: Blood compatibility study (haemolysis)
Experimental: This study was carried out by Biochemical Pharmacology department at Inveresk Research, Scotland, in order to assess the suitability of Aurograb for intravenous administration.
Blood samples were taken from healthy human volunteers, transferred to tubes containing Aurograb, Aurograb vehicle, saponin or saline and incubated at 37° C. for 1 hour. After centrifugation, the amount of haemoglobin in the supernatant was then assessed to determine haemolysis.

Compound | MIC (EMRSA strains) [µg/mL] | Haemolysis classification (ASTM F756-93) (human blood)
Cc1onc(-c2c(F)cccc2Cl)c1C(=O)N[C@@H]1C(=O)N2[C@@H]1SC(C)(C)[C@@H]2C(=O)O [flucloxacillin] | > 256 | 
saponin |  | severely haemolytic
